Reference: patent US7999099B2, “Modified 5′-phosphonate azidothymidine—potential anti-viral preparations” (priority 2004, dated 2011)
Read-outs that look alike come from different tables or passages of the source.

What was measured:
GKV-4046 HIV-1 = experiment: Inhibition of HIV-1 replication in MT-4 cell culture (p24 accumulation, cell viability by MTT); assay type: cell-based, type 1 human immunodeficiency virus; settings: MT-4 cells
Experimental: Inhibition of HIV replication was studied by cultivating pre-infected lymphoid cells of MT-4 cell line in the presence of the investigational compounds in the concentration of 0.001-100 µg per 1 ml of culture medium during one passage, i.e. 4 days.
Inhibition of HIV replication in a sensitive cell culture is assessed by the reduction of p24 virus-specific protein accumulation (according to immunoenzyme assay) as well as by the increase of cell viability in the presence of the drug as compared to the control on the 4th day of cultivation using bromide 3-(4,5-dimethylthiasol-2-yl)-2,5-diphenuyltetrasolium (MTT).
The effect of the investigational compounds of HIV-1 replication in MT-4 cell culture was studied using a known method.
The therapeutic index, or the index of selectivity (IS), is calculated as the ratio of 50% toxic concentration of a compound to its 50% effective dose (the results are presented in table 1).

[1] = Pharmacokinetics of generated AZT in dog blood after oral administration; assay type: in vivo
Experimental: A dog weighing 12 kg was orally given 250 mg of the investigational compound (mixed with curd). Blood samples (1 ml) were taken at defined intervals from the femoral vein. The samples were centrifuged (10 minutes at 2000 rpm) and the supernatant was separated. Oxetan (internal standard, 0.25 […]g) and methanol (0.75 ml) were added to aliquots of the supernatant (0.25 ml). The resulting mixture was centrifuged for 3 minutes at 5000 rpm. The supernatant was separated and evaporated in air flow at 40° C., water (1 ml) was added to the residue. Aliqutes (20[…]1) were analyzed by HPLC in Gynkotec chromatograph (Germany) using Ultrasphere ODC Beckman analytical column (USA). Eluent: 6% acetonitrile in 0.1% H3PO4 (pH 2.1) in the presence of 0.15% triethylamine; detection at […]max 265 nm at 30° C.

## 5′-Aminocarbonylphosphonyl-3′-azido-3′-deoxythymidine [Ie]
GKV-4046 HIV-1
  IS (index of selectivity, ratio of 50% toxic concentration to 50% effective dose): >3000

## 5′-Chloromethylphosphonyl-3′-azido-3′-deoxythymidine [Ia]
GKV-4046 HIV-1
  IS (index of selectivity, ratio of 50% toxic concentration to 50% effective dose): >3000

## 5′-Hydroxymethylphosphonyl-3′-azido-3′-deoxythymidine [Ic]
GKV-4046 HIV-1
  IS (index of selectivity, ratio of 50% toxic concentration to 50% effective dose): >1600

## 5′-Iodomethylphosphonyl-3′-azido-3′-deoxythymidine [Ib]
GKV-4046 HIV-1
  IS (index of selectivity, ratio of 50% toxic concentration to 50% effective dose): >100

## 5′-Methoxymethylphosphonyl-3′-azido-3′-deoxythymidine
GKV-4046 HIV-1
  IS (index of selectivity, ratio of 50% toxic concentration to 50% effective dose): >100

## Cc1cn([C@H]2C[C@H](N=[N+]=[N-])[C@@H](CO)O2)c(=O)[nH]c1=O [AZT, 3′-azido-3′-deoxythymidine]
[1]; in vivo, of azidothymidine, oral, amount equivalent to 250 mg of AZT
  half-life: 312 min
[1]; in vivo, of azidothymidine, oral, amount equivalent to 250 mg of AZT, read-out: AUC
  AUC: 58800 ng·h/mL
[1]; in vivo, of azidothymidine, oral, amount equivalent to 250 mg of AZT, read-out: Cmax
  Cmax: 9770 ng/mL
[1]; in vivo, of azidothymidine, oral, amount equivalent to 250 mg of AZT, read-out: MRT
  MRT: 7.5 h
[1]; in vivo, of azidothymidine, oral, amount equivalent to 250 mg of AZT, read-out: Tmax
  Tmax: 2.5 h
[1]; of azidothymidine, oral, amount equivalent to 250 mg of AZT
  CL: 4.2 L/h

## Cc1cn([C@H]2C[C@H](N=[N+]=[N-])[C@@H](CO[PH](=O)O)O2)c(=O)[nH]c1=O [Nikavir, 5′-hydrohenphosphonate of 3′-azido-2′,3′-dideoxythymidine]
[1]; in vivo, po, 250 mg
  AUC: 16600 ng·h/mL
  CL: 15.0 L/h
  Cmax: 1890 ng/mL
  MRT: 10.4 h
  T1/2: 7.2 h
  Tmax: 4.0 h
GKV-4046 HIV-1
  IS (index of selectivity, ratio of 50% toxic concentration to 50% effective dose): 2015
